Experimental data published in article PMC6572064, “Discovery of 2-(1-(3-(4-Chloroxyphenyl)-3-oxo- propyl)pyrrolidine-3-yl)-1H-benzo[d]imidazole-4-carboxamide: A Potent Poly(ADP-ribose) Polymerase (PARP) Inhibitor for Treatment of Cancer” (Molecules, 2019).
pIC50: −log10 of the molar value. Where two headings read alike, the source gives them in different places.

Columns and labels:
[1] = test system: MDA-MB-436 (a BRCA-1-mutated breast cancer cell line); experiment: Cell proliferation assay, three-day, CellTiter-Glo, MDA-MB-436; assay type: cell-based; conditions: for inhibition at 0.00508 µM / inhibition at 0.0152 µM / inhibition at 0.0457 µM / inhibition at 0.41 µM / inhibition at 1.23 µM / inhibition at 3.7 µM / inhibition at 11.11 µM / inhibition at 33.33 µM / inhibition at 100 µM / pIC50 / IC50: Homo sapiens; for inhibition at 0.00508 µM: MDA-MB-436, MDA-MB-436, Conc. 0.00508 uM; for inhibition at 0.0152 µM: MDA-MB-436, MDA-MB-436, Conc. 0.0152 uM; for inhibition at 0.0457 µM: MDA-MB-436, MDA-MB-436, Conc. 0.0457 uM; for inhibition at 0.41 µM: MDA-MB-436, MDA-MB-436, Conc. 0.41 uM; for inhibition at 1.23 µM: MDA-MB-436, MDA-MB-436, Conc. 1.23 uM; for inhibition at 3.7 µM: MDA-MB-436, MDA-MB-436, Conc. 3.70 uM; for inhibition at 11.11 µM: MDA-MB-436, MDA-MB-436, Conc. 11.11 uM; for inhibition at 33.33 µM: MDA-MB-436, MDA-MB-436, Conc. 33.33 uM; for inhibition at 100 µM: MDA-MB-436, MDA-MB-436, Conc. 100.00 uM; for IC50: curve fit list, no unit in the cell, concentration in uM; for LogIC50: curve fit on Log (uM) concentrations; for Bottom / Top: curve fit parameter (Inh %); for Top: '= 100.0' is a constrained value
Experimental: (§1) A three-day assay was conducted. A cell suspension was prepared. Cell density was counted by an automated cell counter and then diluted to the required density, according to seeding density. 50 μL cells were seeded into 384-well plate in growth medium according to the plate map. The cells were incubated at 37 °C, 5% CO2 overnight.
(§2) 200× compound solution in DMSO was prepared and diluted with growth medium to 26× final concentration by addition of 26 μL 200× compounds to 174 μL growth medium. Then 2 μL of diluted compound solution was added to cells and the cell was incubated at 37 °C, 5% CO2 for 72 h.
(§3) The assay plate was equilibrated to room temperature prior to measurement. 15 μL of CellTiter-Glo Reagent was added into each well and the contents were mixed for 2 min on an orbital shaker to induce cell lysis. The cells were incubated at room temperature for 60 min to stabilize luminescent signal. Luminescence was recorded on the Envision system.

PARP-2 = biological target: T1, PARP-2 (Homo sapiens, UniProt Q9UGN5); experiment: PARP-2 inhibition assay (PARP-2 Chemiluminescent Assay Kit, BPS Bioscience); assay type: biochemical; conditions: 10 nM compound
T1 construct: purchased BPS Bioscience 80552
T1 sequence (Q9UGN5 whole entry): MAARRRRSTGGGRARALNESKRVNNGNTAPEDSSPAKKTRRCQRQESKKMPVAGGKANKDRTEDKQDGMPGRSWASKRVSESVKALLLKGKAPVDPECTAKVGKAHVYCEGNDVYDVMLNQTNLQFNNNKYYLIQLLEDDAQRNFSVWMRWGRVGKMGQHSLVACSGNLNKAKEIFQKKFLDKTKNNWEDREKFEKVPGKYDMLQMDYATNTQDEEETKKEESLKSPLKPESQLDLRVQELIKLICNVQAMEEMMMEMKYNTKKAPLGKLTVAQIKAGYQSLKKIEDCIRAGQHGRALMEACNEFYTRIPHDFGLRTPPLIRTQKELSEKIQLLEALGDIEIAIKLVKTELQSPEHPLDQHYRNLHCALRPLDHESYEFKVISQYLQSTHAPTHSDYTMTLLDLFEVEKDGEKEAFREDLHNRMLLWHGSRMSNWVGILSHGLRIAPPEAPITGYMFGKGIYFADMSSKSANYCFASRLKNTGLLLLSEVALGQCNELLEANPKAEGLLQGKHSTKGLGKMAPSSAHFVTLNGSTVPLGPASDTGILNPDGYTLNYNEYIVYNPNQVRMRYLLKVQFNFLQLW
Experimental: (§4) The PARP-1 and PARP-2 inhibition assays were performed in outsourcing, by a CRO company, Shanghai Medicilon Inc. (Shanghai, China). […] Briefly, PARP-1 or PARP-2 biotinylated substrate was incubated with compounds or solvent control at varying concentrations and an assay buffer containing the PARP-1 or PARP-2 enzyme.

[2] = test system: CAPAN-1 (a BRCA-2-mutated pancreatic cancer cell line); experiment: Cell proliferation assay, three-day, CellTiter-Glo, CAPAN-1; assay type: cell-based; conditions: for LogIC50: Log (uM); for inhibition at 0.00508 µM: CAPAN-1, 0.00508 uM; for inhibition at 0.0152 µM: CAPAN-1, 0.0152 uM; for inhibition at 0.0457 µM: CAPAN-1, 0.0457 uM; for inhibition at […]: CAPAN-1, 0.14 uM; for inhibition at 0.41 µM: CAPAN-1, 0.41 uM; for inhibition at 1.23 µM: CAPAN-1, 1.23 uM; for inhibition at 3.7 µM: CAPAN-1, 3.70 uM; for inhibition at 11.11 µM: CAPAN-1, 11.11 uM; for inhibition at 33.33 µM: CAPAN-1, 33.33 uM; for inhibition at 100 µM: CAPAN-1, 100.00 uM
Experimental: as §1, §2, §3

PARP-1 = biological target: T2, PARP-1 (Homo sapiens, UniProt P09874); experiment: PARP-1 inhibition assay (PARP-1 Chemiluminescent Assay Kit, BPS Bioscience); assay type: biochemical; conditions: 10 nM compound
T2 construct: purchased BPS Bioscience 80569
T2 sequence (P09874 whole entry): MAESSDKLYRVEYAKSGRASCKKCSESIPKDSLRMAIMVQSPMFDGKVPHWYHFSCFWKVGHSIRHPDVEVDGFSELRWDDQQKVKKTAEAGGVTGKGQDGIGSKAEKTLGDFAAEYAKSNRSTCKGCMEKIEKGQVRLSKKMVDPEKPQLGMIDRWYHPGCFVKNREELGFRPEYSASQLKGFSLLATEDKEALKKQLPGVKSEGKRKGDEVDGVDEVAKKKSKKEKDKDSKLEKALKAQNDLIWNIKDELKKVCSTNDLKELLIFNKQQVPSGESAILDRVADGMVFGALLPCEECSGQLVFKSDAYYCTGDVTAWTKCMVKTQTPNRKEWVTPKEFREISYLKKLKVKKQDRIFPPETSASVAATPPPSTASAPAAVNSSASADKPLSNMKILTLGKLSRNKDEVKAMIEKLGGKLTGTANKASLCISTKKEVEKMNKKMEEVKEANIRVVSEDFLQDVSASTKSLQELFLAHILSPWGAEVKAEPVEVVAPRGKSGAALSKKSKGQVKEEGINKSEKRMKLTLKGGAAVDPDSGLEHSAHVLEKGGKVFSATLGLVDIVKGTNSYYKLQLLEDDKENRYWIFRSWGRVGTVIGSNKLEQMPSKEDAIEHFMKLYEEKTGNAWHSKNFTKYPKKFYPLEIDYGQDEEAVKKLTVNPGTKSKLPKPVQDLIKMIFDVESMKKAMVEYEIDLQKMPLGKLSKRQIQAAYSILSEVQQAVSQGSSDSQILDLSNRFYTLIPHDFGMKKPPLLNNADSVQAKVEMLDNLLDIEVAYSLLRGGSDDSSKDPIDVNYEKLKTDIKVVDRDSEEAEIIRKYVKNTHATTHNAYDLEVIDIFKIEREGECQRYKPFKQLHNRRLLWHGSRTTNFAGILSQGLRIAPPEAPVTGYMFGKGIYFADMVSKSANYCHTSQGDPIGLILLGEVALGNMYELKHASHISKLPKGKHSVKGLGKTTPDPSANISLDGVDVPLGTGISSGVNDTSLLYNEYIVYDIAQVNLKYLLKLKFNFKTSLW
Experimental: as §4

[3] = MDA-MB-436, 72 h, CellTiter-Glo, read-out: MDA-MB-436 IC50
[4] = MDA-MB-436, 72 h, supplement Summary sheet, read-out: IC50
[5] = supplement sheet, read-out: 10 nM inhibition% PAPR-2
[6] = read-out: PARP-2 Inhibition % (10 nM)
[7] = Homo sapiens, CAPAN-1, 72 h, CellTiter-Glo, read-out: CAPAN-1 IC50
[8] = Homo sapiens, replicate 1, read-out: Inh % 1
[9] = Homo sapiens, replicate 2, read-out: Inh % 2
[10] = supplement sheet, read-out: 10 nM inhibition% PAPR-1
[11] = read-out: PARP-1 Inhibition % (10 nM)

SMILES: NC(=O)c1cccc2[nH]c(C3CCN(CCC(=O)Nc4ccccc4)C3)nc12 (stereo not drawn) [Compound 5cb, 2-(1-(3-Oxo-3-(Phenylamino)propyl)pyrrolidin-3-yl)-1H-benzo[d]imidazole-4-carboxamide]
- inhibition at 0.00508 µM ([1]; replicate 1, read-out: Inh % 1): 0.0167%
- inhibition at 0.00508 µM ([1]; replicate 2, read-out: Inh % 2): -6.8%
- inhibition at 0.0152 µM ([1]; replicate 1, read-out: Inh % 1): -5.6%
- inhibition at 0.0152 µM ([1]; replicate 2, read-out: Inh % 2): -10.5%
- inhibition at 0.0457 µM ([1]; replicate 1, read-out: Inh % 1): -12.9%
- inhibition at 0.0457 µM ([1]; replicate 2, read-out: Inh % 2): -11.3%
- inhibition at 0.41 µM ([1]; replicate 1, read-out: Inh % 1): -10%
- inhibition at 0.41 µM ([1]; replicate 2, read-out: Inh % 2): -14%
- inhibition at 1.23 µM ([1]; replicate 1, read-out: Inh % 1): -9.6%
- inhibition at 1.23 µM ([1]; replicate 2, read-out: Inh % 2): -14.7%
- inhibition at 3.7 µM ([1]; replicate 1, read-out: Inh % 1): -9.8%
- inhibition at 3.7 µM ([1]; replicate 2, read-out: Inh % 2): -10.5%
- inhibition at 11.11 µM ([1]; replicate 1, read-out: Inh % 1): -2.5%
- inhibition at 11.11 µM ([1]; replicate 2, read-out: Inh % 2): -1.6%
- inhibition at 33.33 µM ([1]; replicate 1, read-out: Inh % 1): 9.7%
- inhibition at 33.33 µM ([1]; replicate 2, read-out: Inh % 2): 9.8%
- inhibition at 100 µM ([1]; replicate 1, read-out: Inh % 1): 58.3%
- inhibition at 100 µM ([1]; replicate 2, read-out: Inh % 2): 40%
- pIC50 [1, 3]: 4.04
- pIC50 [1, 4]: 4.04
- IC50 ([1]; MDA-MB-436, read-out: IC50): 90.4 µM
- LogIC50 ([1]; MDA-MB-436): 1.956
- Bottom ([1]; MDA-MB-436): -10.26
- Top ([1]; MDA-MB-436): = 100.0
- inhibition at 0.01 µM (PARP-2; [5]): 41.2%
- inhibition at 0.01 µM (PARP-2; [6]): 41.2%
- LogIC50 ([2]; CAPAN-1, curve-fit output): 2.189
- pIC50 [2, 7]: < 4.00
- inhibition at 0.00508 µM [2, 8]: -8%
- inhibition at 0.00508 µM [2, 9]: 3.3%
- inhibition at 0.0152 µM [2, 8]: 3.4%
- inhibition at 0.0152 µM [2, 9]: 17%
- inhibition at 0.0457 µM [2, 8]: -4.1%
- inhibition at 0.0457 µM [2, 9]: 5.6%
- inhibition at […] [2, 8]: -2%
- inhibition at […] [2, 9]: 2.2%
- inhibition at 0.41 µM [2, 8]: 10.3%
- inhibition at 0.41 µM [2, 9]: 6.1%
- inhibition at 1.23 µM [2, 8]: 12.4%
- inhibition at 1.23 µM [2, 9]: -0.64%
- inhibition at 3.7 µM [2, 8]: 11.2%
- inhibition at 3.7 µM [2, 9]: 9.9%
- inhibition at 11.11 µM [2, 8]: 5%
- inhibition at 11.11 µM [2, 9]: -4.1%
- inhibition at 33.33 µM [2, 8]: 3.6%
- inhibition at 33.33 µM [2, 9]: 21.6%
- inhibition at 100 µM [2, 8]: 39.1%
- inhibition at 100 µM [2, 9]: 32%
- inhibition at 0.01 µM (PARP-1; [10]): 19.9%
- inhibition at 0.01 µM (PARP-1; [11]): 19.9%

SMILES: NC(=O)c1cccc2[nH]c(C3CCN(CC(=O)c4ccccc4)C3)nc12 (stereo not drawn) [Compound 5cd, 2-(1-(2-Oxo-2-phenylethyl)pyrrolidin-3-yl)-1H-benzo[d]imidazole-4-carboxa-mide]
- inhibition at 0.00508 µM ([1]; replicate 1, read-out: Inh % 1): -0.654%
- inhibition at 0.00508 µM ([1]; replicate 2, read-out: Inh % 2): -7.1%
- inhibition at 0.0152 µM ([1]; replicate 1, read-out: Inh % 1): -3.7%
- inhibition at 0.0152 µM ([1]; replicate 2, read-out: Inh % 2): -6.1%
- inhibition at 0.0457 µM ([1]; replicate 1, read-out: Inh % 1): -6.8%
- inhibition at 0.0457 µM ([1]; replicate 2, read-out: Inh % 2): -12.7%
- inhibition at 0.41 µM ([1]; replicate 1, read-out: Inh % 1): -13.5%
- inhibition at 0.41 µM ([1]; replicate 2, read-out: Inh % 2): -13.2%
- inhibition at 1.23 µM ([1]; replicate 1, read-out: Inh % 1): -16.5%
- inhibition at 1.23 µM ([1]; replicate 2, read-out: Inh % 2): -19%
- inhibition at 3.7 µM ([1]; replicate 1, read-out: Inh % 1): -10.3%
- inhibition at 3.7 µM ([1]; replicate 2, read-out: Inh % 2): -11.7%
- inhibition at 11.11 µM ([1]; replicate 1, read-out: Inh % 1): 0.3%
- inhibition at 11.11 µM ([1]; replicate 2, read-out: Inh % 2): -11%
- inhibition at 33.33 µM ([1]; replicate 1, read-out: Inh % 1): 35.4%
- inhibition at 33.33 µM ([1]; replicate 2, read-out: Inh % 2): 16.5%
- inhibition at 100 µM ([1]; replicate 1, read-out: Inh % 1): 68.9%
- inhibition at 100 µM ([1]; replicate 2, read-out: Inh % 2): 66.2%
- pIC50 [1, 3]: 4.26
- pIC50 [1, 4]: 4.26
- IC50 ([1]; MDA-MB-436, read-out: IC50): 55 µM
- LogIC50 ([1]; MDA-MB-436): 1.74
- Bottom ([1]; MDA-MB-436): -10.87
- Top ([1]; MDA-MB-436): = 100.0
- inhibition at 0.01 µM (PARP-2; [5]): 7.18%
- inhibition at 0.01 µM (PARP-2; [6]): 7.2%
- LogIC50 ([2]; CAPAN-1, curve-fit output): 1.917
- pIC50 [2, 7]: 4.08
- inhibition at 0.00508 µM [2, 8]: 4.6%
- inhibition at 0.00508 µM [2, 9]: -0.8%
- inhibition at 0.0152 µM [2, 8]: 2.6%
- inhibition at 0.0152 µM [2, 9]: -1.6%
- inhibition at 0.0457 µM [2, 8]: 0.6%
- inhibition at 0.0457 µM [2, 9]: -4.7%
- inhibition at […] [2, 8]: 3.7%
- inhibition at […] [2, 9]: -1.1%
- inhibition at 0.41 µM [2, 8]: 13.1%
- inhibition at 0.41 µM [2, 9]: 3.2%
- inhibition at 1.23 µM [2, 8]: 2.1%
- inhibition at 1.23 µM [2, 9]: 3.2%
- inhibition at 3.7 µM [2, 8]: 4%
- inhibition at 3.7 µM [2, 9]: 4.4%
- inhibition at 11.11 µM [2, 8]: 1%
- inhibition at 11.11 µM [2, 9]: 4.4%
- inhibition at 33.33 µM [2, 8]: 17.9%
- inhibition at 33.33 µM [2, 9]: 8.7%
- inhibition at 100 µM [2, 8]: 68%
- inhibition at 100 µM [2, 9]: 55.2%
- pIC50 ([2]; Homo sapiens, CAPAN-1, 72 h, supplement Summary sheet, read-out: IC50): 4.08
- IC50 ([2]; Homo sapiens, CAPAN-1, curve-fit output, concentrations in uM, read-out: IC50): 82.5 µM
- inhibition at 0.01 µM (PARP-1; [10]): -1.05%
- inhibition at 0.01 µM (PARP-1; [11]): -1.1%
